According to article doi:10.1101/2025.04.16.649181, “Design of peptide-based PAC1 antagonists combining molecular dynamics simulations and a biologically relevant cell-based assay” (bioRxiv, 2025):
Positions of bridges follow the written chain, without caps; N, C: chain ends. Non-standard residues stand in square brackets, D forms with d. Residues, ends and D or L forms follow the SMILES beside them. No end group written: not given here. Cha = N[C@@H](CC1CCCCC1)C(=O)O

Legend:
Type in all cases: cell-based
[1] = biological target: T1, PAC1 (endogenous, mainly PAC1null, SH-SY5Y) (Homo sapiens, UniProt P41586); assay: CBS assay, antagonism of P27-induced cAMP in SY5Y_CBS cells
T1 construct: Neuroblastoma SH-SY5Y cells endogenously xpressing hPAC1 and engineered to express CBS; endogenous in cells
T1 sequence (P41586 21-468): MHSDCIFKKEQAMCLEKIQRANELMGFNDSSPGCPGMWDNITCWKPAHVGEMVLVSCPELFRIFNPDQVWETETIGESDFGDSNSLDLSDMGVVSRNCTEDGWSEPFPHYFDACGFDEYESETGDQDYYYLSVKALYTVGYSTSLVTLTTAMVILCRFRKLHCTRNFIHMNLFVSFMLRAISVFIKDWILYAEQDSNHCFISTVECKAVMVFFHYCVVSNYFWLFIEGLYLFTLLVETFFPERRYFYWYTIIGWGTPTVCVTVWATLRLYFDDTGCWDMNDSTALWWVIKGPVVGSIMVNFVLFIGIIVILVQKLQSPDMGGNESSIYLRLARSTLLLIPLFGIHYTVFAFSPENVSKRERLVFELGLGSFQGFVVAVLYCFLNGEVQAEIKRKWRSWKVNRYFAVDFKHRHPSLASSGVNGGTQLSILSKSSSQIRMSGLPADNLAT
Source text: (§1) A single clone of the SH-SY5Y cell line stably expressing a cAMP biosensor (SY5Y_CBS) was generated as previously described for HEK293_CBS and NS-1_CBS cells, using the retroviral vector pLHCX containing the cAMP biosensor and a hygromycin resistance gene. A HEK293_CBS_hPAC1 cell clone was generated by transducing HEK293_CBS cells with the lentiviral vector pLX304 (GeneCopoeia, Rockville, MD) encoding the human PAC1hop (PAC1; GenBank accession no. BC143679) and a blasticidin resistance gene . Following transduction, cells were selected with the appropriate antibiotics (hygromycin or blasticidin) for 2 weeks. Single-cell clones were subsequently isolated by limiting dilution and assessed for PACAP-induced cAMP production using concentration-response assays.
(§2) The cyclic AMP biosensor (CBS) assay was performed using Gibco CO2-independent medium (ThermoFisher, catalog #18045-088). HEK293_CBS_hPAC1 or SY5Y_CBS cells were seeded in 96-well black/clear-bottom plates (MidSci, Fenton, MO) at a density of 6,000 cells per well and incubated overnight. The following day, the medium in each well was aspirated and replaced with fresh medium containing 1.5 mg/mL D-luciferin potassium salt substrate (Gold Biotechnology, St. Louis, MO) and 500 μM isobutyl-1-methylxanthine (IBMX), followed by incubation at 37 °C for 1 hour. Cells were then pre-treated with antagonists for 10 minutes before the addition of agonists (PACAP or forskolin). Plates were incubated at 37 °C for 1 hour, then brought to room temperature and equilibrated for 30 minutes. Luminescence was measured using a GloMax plate reader (Promega, Madison, WI).
For the high-throughput CBS screening assays, cells were plated at 2,000 (HEK293_CBS_hPAC1) or 3,000 (SY5Y_CBS) cells per well in […] of Gibco CO2-independent medium, in white 1,536-well tissue culture treated plates. After overnight incubation at 37 °C and 5% CO2, […] of luciferin/IBMX solution was added to the wells (final concentrations of 500 μM each) and plates were incubated at 37 °C for 1 hour. SMOLs (22.5 nL) were transferred to the assay plate, using a pintool device (HEK293 screen) or an ECHO acoustic liquid handler (Beckman Coulter, Brea, CA, SY5Y screen), to final concentrations (4 concentrations per compound) between 0.5 and 30 μM and cells were incubated at 37 °C for 1 hour (HEK293 screen) or 10 minutes (SY5Y screen). […] For forskolin counterscreening in SY5Y cells, forskolin instead of peptide was dispensed to the plate at a final concentration of 5 μM.
(§3) GraphPad Prism ver. 9.0 or 10.0 (GraphPad Software Inc, Boston, MA) was used for data analysis. Concentration response curves were created using a four parameter logistic regression model. EC80 and IC50 parameters were obtained using non-linear regression curve fitting tools. EC80 was calculated as the effective concentration of the agonist required to produce 80% of the maximal response. IC50 was calculated as the concentration of the antagonist that produced 50% of the response induced by an agonist (either PACAP or forskolin) in the absence of the antagonist. Seven or eight different concentrations and three technical replicates per concentration were used for curve fitting. All data are presented as mean ± standard error of the mean (SEM).

[2] = biological target: T1, PAC1 (endogenous, mainly PAC1null, SH-SY5Y); assay: CBS assay, antagonism of P38-induced cAMP in SY5Y_CBS cells
Source text: as §1, §2, §3

[3] = biological target: T1, PAC1 (endogenous, mainly PAC1null, SH-SY5Y); assay: Direct cAMP ELISA, antagonism of P38 in SY5Y_CBS cells
Procedure: Direct cAMP determinations were made using the DetectX® Direct Cyclic AMP Enzyme Immunoassay Kit (Arbor Assays, Ann Arbor, MI). SY5Y_CBS cells (200,000 cells per well) or HEK293_CBS cells (10,000 cells per well) were seeded into 96-well plates one day prior to the assay. These cell densities were optimized to ensure agonist responses fell within the linear range of the cAMP standard curve (0.16-10 pmol/mL cAMP). On the day of the assay, the medium was removed and replaced with fresh medium containing 500 μM IBMX. After a 20-minute incubation at 37 °C, antagonists were added and incubated for 10 minutes at 37 °C, followed by the addition of agonists for 30 minutes at 37 °C. Following the final incubation, the medium was aspirated, and cells were lysed with 200 μL of lysis buffer (provided in the kit) for 10 minutes at room temperature. Samples were then snap-frozen and stored at −80 °C overnight and thawed the next day to ensure complete cell lysis. The assay was completed by sequentially adding the cAMP peroxidase conjugate, anti-cAMP sheep antibody, substrate, and stop solution, according to the manufacturer’s instructions. Optical density was measured at 450 nm using a microplate spectrophotometer (Molecular Devices, San Jose, CA). Standard curves and data analysis were performed using GraphPad Prism with a sigmoidal four-parameter nonlinear regression model. Experiments conducted on different days with independently plated and assayed cells were considered biological replicates. Each experiment included three technical replicates.
as §3

[4] = IC50 against P27, 0.2 nM P27 (EC80), n = 3, Figure 7C
[5] = 1 nM P38, average of two independent experiments, read-out: IC50 Average in ELISA assay
[6] = 1 nM P38, range of two independent experiments, read-out: IC50 Range in ELISA assay

Row | Compound | antagonist potency vs P6-27 ([1]; 0.2 nM P27 (EC80)) | IC50 [1, 4] [nM] | IC50 [3, 5] [nM] | IC50 [3, 6] [nM] | also measured
1 | CSCC[C@@H]1NC(=O)[C@@H](NC(=O)[C@H](CCCCN)NC(=O)[C@H](CCCNC(=N)N)NC(=O)[C@H](Cc2ccc(O)cc2)NC(=O)[C@H](CCCNC(=N)N)NC(=O)[C@H](CO)NC(=O)[C@H](Cc2ccc(O)cc2)NC(=O)[C@H](CO)NC(=O)[C@H](CC(=O)O)NC(=O)[C@@H](NC(=O)[C@@H](N)Cc2ccccc2)[C@@H](C)O)CCC(=O)NCCCC[C@@H](C(=O)N[C@@H](CCCCN)C(=O)N[C@@H](Cc2ccc(O)cc2)C(=O)N[C@@H](CC(C)C)C(=O)N[C@@H](C)C(=O)N[C@@H](C)C(=O)N[C@H](C(=O)N[C@@H](CC(C)C)C(N)=O)C(C)C)NC(=O)[C@H](C(C)C)NC(=O)[C@H](C)NC1=O [P6-27Lb, (c[E16,K20])P6-27] (H-FTDSYSRYRKEMAVKKYLAAVL-NH2; lactam 11-15; N-terminus assumed) | did not increase the inhibitory effect of P6-27 | > 1000 |  |  | 
2 | CSCC[C@@H]1NC(=O)[C@@H](NC(=O)[C@H](CCCCN)NC(=O)[C@H](CCCNC(=N)N)NC(=O)[C@H](Cc2ccc(O)cc2)NC(=O)[C@H](CCCNC(=N)N)NC(=O)[C@H](CO)NC(=O)[C@H](Cc2ccc(O)cc2)NC(=O)[C@H](CO)NC(=O)[C@H](CC(=O)O)NC(=O)[C@@H](NC(=O)[C@@H](N)Cc2ccccc2)[C@@H](C)O)CCC(=O)NCCCC[C@@H](C(=O)N[C@@H](CCCCN)C(=O)N[C@@H](Cc2ccc(O)cc2)C(=O)N[C@@H](CC2CCCCC2)C(=O)N[C@@H](C)C(=O)N[C@@H](C)C(=O)N[C@H](C(=O)N[C@@H](CC(C)C)C(N)=O)C(C)C)NC(=O)[C@H](C(C)C)NC(=O)[C@H](C)NC1=O [P6-27Lbx1, (c[E16,K20], Cha23)P6-27] (H-FTDSYSRYRKEMAVKKY[Cha]AAVL-NH2; lactam 11-15; N-terminus assumed) | did not increase the inhibitory effect of P6-27 | > 1000 |  |  | 
3 | CSCC[C@@H]1NC(=O)[C@@H](NC(=O)[C@H](CCCCN)NC(=O)[C@H](CCCNC(=N)N)NC(=O)[C@H](Cc2ccc(O)cc2)NC(=O)[C@H](CCCNC(=N)N)NC(=O)[C@H](CO)NC(=O)[C@H](Cc2ccc(O)cc2)NC(=O)[C@H](CO)NC(=O)[C@H](CC(=O)O)NC(=O)[C@@H](NC(=O)[C@@H](N)Cc2ccccc2)[C@@H](C)O)CCC(=O)NCCCC[C@@H](C(=O)N[C@@H](CCCCN)C(=O)N[C@@H](Cc2ccc(O)cc2)C(=O)N[C@@H](CC(C)C)C(=O)N[C@@H](C)C(=O)N[C@@H](C)C(=O)N[C@H](C(=O)N[C@@H](CC2CCCCC2)C(N)=O)C(C)C)NC(=O)[C@H](C(C)C)NC(=O)[C@H](C)NC1=O [P6-27Lbx2, (c[E16,K20], Cha27)P6-27] (H-FTDSYSRYRKEMAVKKYLAAV[Cha]-NH2; lactam 11-15; N-terminus assumed) | did not increase the inhibitory effect of P6-27 | > 1000 |  |  | 
4 | CSCC[C@H](NC(=O)[C@H](CCC(N)=O)NC(=O)[C@H](CCCCN)NC(=O)[C@H](CCCNC(=N)N)NC(=O)[C@H](Cc1ccc(O)cc1)NC(=O)[C@H](CCCNC(=N)N)NC(=O)[C@H](CO)NC(=O)[C@H](Cc1ccc(O)cc1)NC(=O)[C@H](CO)NC(=O)[C@H](CC(=O)O)NC(=O)[C@@H](NC(=O)[C@@H](N)Cc1ccccc1)[C@@H](C)O)C(=O)N[C@@H](C)C(=O)N[C@H](C(=O)N[C@@H](CCCCN)C(=O)N[C@@H](CCCCN)C(=O)N[C@@H](Cc1ccc(O)cc1)C(=O)N[C@@H](CC(C)C)C(=O)N[C@@H](C)C(=O)N[C@@H](C)C(=O)N[C@H](C(=O)N[C@@H](CC(C)C)C(=O)NCC(=O)N[C@@H](CCCCN)C(=O)N[C@@H](CCCNC(=N)N)C(=O)N[C@@H](Cc1ccc(O)cc1)C(=O)N[C@@H](CCCCN)C(=O)N[C@@H](CCC(N)=O)C(=O)N[C@@H](CCCNC(=N)N)C(=O)N[C@H](C(=O)N[C@@H](CCCCN)C(=O)N[C@@H](CC(N)=O)C(=O)N[C@@H](CCCCN)C(N)=O)C(C)C)C(C)C)C(C)C [P6-38, reference compound] |  |  | 114 | 86 to 142 | IC50 ([2]; 0.2 nM P38 (EC80), SY5Y_CBS, mean ± SEM, three independent experiments, Figure 11B, read-out: IC50 of P6-38 C-terminal mutants in CBS assay): 117 ± 19 nM; IC50 ([2]; IC50 against P38 (Figure 9C), 0.2 nM P38, CBS assay, mean ± SEM, three independent experiments): 52 ± 13 nM; IC50 ([2]; IC50 against P38 (estimated from Figure 5B), 0.2 nM P38 (EC80), SY5Y_CBS, CBS assay): ~100 nM; IC50 ([1]; IC50 against P27 (estimated from Figure 5B), 0.2 nM P27 (EC80), SY5Y_CBS): ~20 nM
5 | FTDSYSRYRKQMAVKKYLAAVL-NH2 [P6-27] |  |  | 3310 | 370 to 6250 | IC50 ([2]; 0.2 nM P38 (EC80), SY5Y_CBS, three independent experiments, Figure 11B, read-out: IC50 of P6-38 C-terminal mutants in CBS assay): > 1000 nM; IC50 ([1]; IC50 against P27 (Figure 8), 0.2 nM P27, SY5Y_CBS, 3 independent experiments): ~100 nM; IC50 ([1]; IC50 against P27, 0.2 nM P27 (EC80), mean ± SEM, n = 3, Figure 7C): 200 ± 55 nM
